Assay results as given in US12173309B2, “Compounds for increasing genome editing efficiency” (Max-Planck-Gesellschaft zur Förderung der Wissenschaften …, priority 2017, dated 2024).
Entries after “also recorded” stand apart in the source; their conditions may differ.

Experiments:
K562 cells = experiment: PGE of HPRT with Cpf1 electroporation in non-pluripotent cells; type: cell-based, human; details: 20 μM NU7026, 0.01 μM TSA, 0.5 μM MLN4924, 5 μM NSC 15520
Experimental: (§1) Stem cell lines cultured for this project included human 409-B2 hiPSC ([…], Riken BioResource Center) and SC102A1 hiPSC ([…], BioCat GmbH), chimpanzee SandraA ciPSC (female, Mora-Bermúdez et al. 201637), as well as H9 hESC ([…], WiCell Research Institute, Ethics permit AZ 3.04.02/0118). Stem cell lines were grown on Matrigel Matrix (Corning, 35248), and mTeSR1 (StemCell Technologies, 05851) with mTeSR1 supplement (StemCell Technologies, 05852) was used as culture media. Non-pluripotent cell types and their respective media used were: HEK293 (ECACC, 85120602) with DMEM/F-12 (Gibco, 31330-038) supplemented with 10% FBS (SIGMA, F2442) and 1% NEAA (SIGMA, M7145); K562 (ECACC, 89121407) with IMDM (ThermoFisher, 12440053) supplemented with 10% FBS; CD4^+ T (HemaCare, PB04C-1) with RPMI 1640 (ThermoFisher, 11875-093) supplemented with 10% FBS, and activated with Dynabeads Human T-Activator (CD3/CD28) (ThermoFisher, 11131D); CD34^+ progenitor (HemaCare, M34C-1) with StemSpan SFEM (Stemcell, 09600) supplemented with StemSpan CC110 (StemCell, 02697); and HEKa (Gibco, C0055C) with Medium 154 (ThermoFisher, M154500) and Human Keratinocyte Growth Supplement (ThermoFisher, S0015). Cells were grown at 37° C. in a humidified incubator gassed with 5% CO2. Media was replaced every day for stem cells and every second day for non-pluripotent cell lines. Cell cultures were maintained 4-6 days until ˜80% confluency, and subcultured at a 1:6 to 1:10 dilution. Adherent cells were dissociated using EDTA (VWR, 437012C). The media was supplemented with 10 μM Rho-associated protein kinase (ROCK) inhibitor Y-27632 (Calbiochem, 688000) after cell splitting for one day in order to increase cell survival.
(§2) The recombinant A.s. Cpf1 and S.p. Cas9 protein and electroporation enhancer was ordered from IDT (Coralville, USA) and nucleofection was done using the manufacturer's protocol, except for the following alterations. Nucleofection was done using the B-16 program (or U-14 for CD4^+ T cells) of the Nucleofector 2b Device (Lonza) in cuvettes for 100 μl Human Stem Cell nucleofection buffer (Lonza, VVPH-5022), or Human T Cell nucleofection buffer for CD4^+ T cells (Lonza, VPA-1002), and Human CD34 Cell nucleofection buffer for CD34^+ progenitor cells (Lonza, VPA-1003), containing 1 million cells of the respective lines, 78 pmol electroporation enhancer, 160 pmol of each gRNA (crRNA/tracR duplex for Cas9 and crRNA for Cpf1) (320 pmol for double nicking with both gRNAs for one gene), 200 pmol ssODN donor, 252 pmol CRISPR protein. For multiplexing, only gRNAs and single stranded DNA donors were electroporated, since a Cas9n expressing iCRISPR-Cas9n hiPSC line was used. Cells were counted using the Countess Automated Cell Counter (Invitrogen). […]

HEK293 cells = experiment: as above; type: cell-based, human; details: 20 μM NU7026, 0.01 μM TSA, 0.5 μM MLN4924, 5 μM NSC 15520
Experimental: as §1, §2

Row | Compound | effect on PGE efficiency (K562 cells) | effect on PGE efficiency (HEK293 cells)
1 | O=c1cc(N2CCOCC2)oc2c1ccc1ccccc12 [NU7026] | strongly increases; also recorded: increases | strongly increases; also recorded: increases
2 | NS(=O)(=O)OC[C@@H]1C[C@@H](n2ccc3c(N[C@H]4CCc5ccccc54)ncnc32)C[C@@H]1O [MLN4924, Pevonedistat] | clear disruptive effect | clear disruptive effect
